Columns and labels:
Mouse 11β-HSD 1 = Mouse 11β-HSD 1 (Mus musculus, UniProt P50172); assay: Evaluation of compound against mouse 11β-HSD1 (HTRF corticosterone assay); type: biochemical; details: mouse 11β-HSD1, 11-dehydrocorticosterone 2 μM substrate, 37° C. 2 hours
Description: Evaluation Method of 11β-HSD1 Inhibitor (Evaluation of Compound Against Mouse 11β-HSD 1)
(§1) After preincubating an inhibitor in a reaction solution consisting of 50 mM sodium phosphate buffer (pH 7.6), bovine serum albumin (1 mg/mL), NADPH (0.42 mg/mL), glucose-6-phosphate (1.26 mg/mL), glucose-6-phosphate dehydrogenase, and an enzyme at room temperature for 30 minutes, 11-dehydrocorticosterone (2 μM) which is a substrate was added (total amount 10 μL). After reacting at 37° C. for 2 hours, an XL-665-labeled cortisol solution (5 μL), and a Cryptate-labeled anti-cortisol antibody solution (5 μL) were added, a reaction was performed at room temperature for 2 hours, and fluorescence intensity (HTRF method) was measured. A corticosterone concentration was calculated from a standard curve prepared using a known concentration of corticosterone for each assay.
Taking a concentration of corticosterone generated in the absence of the inhibitor as a control value, 50% inhibitory concentration (IC50 value) of the inhibitor against 11β-HSD1 was calculated from an inhibition curve plotting inhibition rate against the control value at each concentration of the inhibitor.

Human 11β-HSD1 = Human 11β-HSD1 (Homo sapiens, UniProt P28845); assay: Evaluation of compound against human 11β-HSD1 (HTRF cortisol assay); type: biochemical; details: human 11β-HSD1, cortisone 5 μM substrate, 37° C. 2 hours
Sequence of Human 11β-HSD1 (P28845 whole entry): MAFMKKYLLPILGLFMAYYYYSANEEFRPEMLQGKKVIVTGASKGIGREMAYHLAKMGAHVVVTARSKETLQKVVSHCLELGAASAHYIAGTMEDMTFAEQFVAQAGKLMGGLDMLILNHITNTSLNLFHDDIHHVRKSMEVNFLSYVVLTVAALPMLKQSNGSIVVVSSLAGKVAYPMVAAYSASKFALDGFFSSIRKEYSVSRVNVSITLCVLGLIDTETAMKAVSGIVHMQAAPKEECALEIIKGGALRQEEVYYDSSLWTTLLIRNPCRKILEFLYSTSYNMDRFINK
Description: Evaluation Method of 11β-HSD1 Inhibitor (Evaluation of Compound Against Human 11β-HSD1)
as §1, with “dehydrogenase” for “dehydrogenase,”, “cortisone (5” for “11-dehydrocorticosterone (2”, “cortisol” for “corticosterone”
Taking a concentration of cortisol generated in the absence of the inhibitor as a control value, 50% inhibitory concentration (IC50 value) of the inhibitor against 11β-HSD1 was calculated from an inhibition curve plotting inhibition rate against the control value at each concentration of an inhibitor.

Sequence of Mouse 11β-HSD 1 (P50172 whole entry): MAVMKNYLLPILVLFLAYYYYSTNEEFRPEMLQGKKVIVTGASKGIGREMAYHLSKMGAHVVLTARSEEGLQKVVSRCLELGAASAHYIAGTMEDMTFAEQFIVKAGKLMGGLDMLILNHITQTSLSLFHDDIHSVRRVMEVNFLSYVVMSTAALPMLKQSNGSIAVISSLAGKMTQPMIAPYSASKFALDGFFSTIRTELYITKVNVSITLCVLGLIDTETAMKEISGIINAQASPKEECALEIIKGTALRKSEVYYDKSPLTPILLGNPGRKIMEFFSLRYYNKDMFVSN

| SMILES | IC50 (Mouse 11β-HSD 1) [nM] | IC50 (Human 11β-HSD1) [nM] |
| --- | --- | --- |
| CCN(C1=NC(=O)C2CC(C)(C)CCC2S1)c1ccccc1C(C)(C)C (stereo not drawn) [Compound I-175] | 820 | 32 |
| CCN(C1=NC(=O)C2CC(C)(C)CCC2S1)N1CCCCCC1 (stereo not drawn) [Compound I-195] | 1640 | 11 |
| CN(C1=NC(=O)C2CCCCCC2S1)C(C)(C)C (stereo not drawn) [Compound I-158] | 1490 | 190 |

Source: US20100234363A1, “HETEROCYCLIC DERIVATIVE HAVING INHIBITORY ACTIVITY ON TYPE-I 11 DATA-HYDROXYSTEROID DEHYDROGENASE” (INSTITUTE OF MEDICINAL MOLECULAR DESIGN, INC., priority 2007, published 2010)
